# “Also recorded” adds a separate entry of the source.
# How the values were obtained:
# [1] = target: T1, full length SYK and FCER1G (Homo sapiens, UniProt P43405); assay: GST pull-down (GST-PD) of GST-SYK and FCER1G-Flag from HEK293T cell lysates; assay type: biochemical; conditions: dose-response format
# T1 construct: full length GST-SYK and FCER1G-Flag were co-expressed in HEK293 cells prior to lysis; expressed in transfected cells; host or cells: HEK293T (CRL-3216, ATCC)
# Procedure: Pull-down assays were used as an orthogonal assay to determine if the compounds could disrupt the PPI between full length SYK and FCER1G proteins from cell lysates. To optimize GST pulldown assays, full length GST-SYK and FCER1G-Flag were co-expressed in HEK293 cells prior to lysis and the protein expression and cell lysate concentrations tested (Fig 4A). All 40 compounds that progressed from uHTS were tested via GST-PD at a single concentration (100 μM) to determine if they could inhibit the PPI between the full-length proteins, with the p-ITAM FCER1G peptide used as a positive control (Fig 4B). […] Compound 24 contains a promiscuous maleimide, which is well known to react indiscriminately with proteins.
# GST-, VF-tagged human SYK and FCER1G plasmids for mammalian expression were generated using Gateway cloning technology (Invitrogen) as described previously. The DNA was purified using ZymoPURE Plasmid Maxiprep Kit (D4203, Zymo Research).
# WB secondary antibodies: peroxidase-conjugated AffiniPure Goat Anti-Mouse IgG (H+L) (115-035-003, Jackson Immuno Research) 1:5000 dilution in TBST. GST pulldown was performed as described with minor changes. HEK293T (CRL-3216, ATCC) were cultured in Dulbecco’s modified Eagle’s medium with 4.5 g/L glucose, L-glutamine, and sodium pyruvate (10–013-CV, Corning) supplemented with 10% fetal bovine serum and 1% penicillin/streptomycin solution (30–002-CI, CellGro). Cells were incubated at 37°C in humidified conditions with 5% CO2. The HEK293T cells were transfected using 1 mg/mL Polyethylenimine (PEI; 23966, Polysciences) in a ratio of 3 μL to 1 μg DNA. The proteins were expressed for 48 h at 37°C. Cell pellets were re-suspended in the SYK lysis buffer (25 mM HEPES, pH 7.5, 200 mM NaCl, 0.5% Triton X100 (T9284-1L, Sigma-Aldrich), followed by sonication for 10 s (5 s on, 5 s off) at 4°C. Cells were pelleted by 10 min centrifugation at 13,000 rpm at 4°C. The cleared lysates were first pre-incubated with compounds for 30 min and then incubated with glutathione sepharose 4B beads (17075605, Cytiva Sweden AB) at 4°C for 2 h with rotation. After the incubation, beads were washed three times with the SYK lysis buffer, eluted by boiling in sodium dodecyl sulfate-polyacrylamide gel electrophoresis (SDS–PAGE) loading buffer (1610737, Bio-Rad), and analyzed by western blotting.
# [2] = target: T2, SYK-tSH2 (Homo sapiens, UniProt P43405); assay: Covalent labelling and intact mass spectrometry; assay type: binding; design: tandem SH2 domains of human SYK (residues M6-N269); 6xHis (N, cleaved yes); made in house; host or cells: E. coli BL21(DE3)-R3-pRARE; conditions: for Number of mass adducts on SYK-tSH2 / Covalent modification of SYK-tSH2: 100 μM
# Text: The HTS hits 13 and 37 contain a kojic acid moiety, which is proposed to react covalently with proteins in the literature. As a result, we thought that it was likely these compounds are also reacting covalently with SYK-tSH2. […] When bound to the protein, these kojic acid-derived compounds have a 94 Da decrease in mass due to the loss of the pyridin-2-amine leaving group to reveal a Michael acceptor that can react covalently with cysteine residues (Fig 5B).
# To expand on the initial 40 putative hits that were identified via uHTS (Fig 3D), additional commercially available structural analogues were ordered and screened via TR-FRET and differential scanning fluorimetry (DSF) (S1 Table). […] The observation of a substantial reduction in protein melting temperature motivated us to determine if the compounds interacted covalently with the SYK-tSH2 domains. Additionally, since the thiourea in these small molecules is reported to react via oxidation, the compounds could be capable of forming a covalent disulfide bond with cysteine residues on SYK [39]. We used compound 1, which is a known covalent modifier of SYK-tSH2, as a positive control in the mass spectrometry analysis. […] Literature reports support that this type of chemical reaction can occur in DMSO, forming a disulfide bond. […] Like we had originally observed for the older DMSO stock solution of 42 (Fig 6C), 44 forms two to four mass adducts (422 Da and 844 Da) more than the protein mass when incubated SYK-tSH2 for 1 h (Fig 6D). […] Due to the mass adducts of two to four (422 Da and 844 Da), we propose that 44 is forming a disulfide bond with between two or four cysteines on SYK-tSH2 (Fig 6G).
# [3] = Kinetic solubility (Analiza, Inc., CLND); assay type: physicochemical; conditions: phosphate buffered saline, aqueous buffer, kinetic from dmso stock, PBS pH 7.4, 24 h incubation, by Analiza
# Procedure: Following 24 h incubation in a Millipore solubility filter plate, samples were vacuum filtered, and the filtrates collected for analysis. Filtrates were injected into the nitrogen detector for quantification via total chemiluminescent nitrogen determination (CLND). Filtrates were quantified with respect to a calibration curve generated using standards that span the dynamic range of the instrument. The reported solubility value has been corrected for background nitrogen present in the media and DMSO.
# [4] = target: MSN (Homo sapiens, UniProt P26038); assay: Covalent labelling and intact mass spectrometry (selectivity); conditions: 1 h, room temperature
# [5] = target: T3, SYK-tSH2 / FCER1G p-ITAM interaction (Homo sapiens, UniProt P43405); assay: TR-FRET assay of 6xHis-SYK-tSH2 with FITC-labeled FCER1G p-ITAM peptide; assay type: biochemical
# T3 construct: the tSH2 domain of SYK (residues M6-N269) fused to an N-terminal 6×His tag; made in house; host or cells: E. coli BL21(DE3)-R3-pRARE
# Text: To facilitate identification of inhibitors of the SYK-FCER1G interaction, we developed a TR-FRET assay using recombinant protein comprising the tSH2 domain of SYK (residues M6-N269) fused to an N-terminal 6×His tag (S1A Fig). The TR-FRET assay is based on the interaction of a FITC-labeled FCER1G p-ITAM peptide to the 6×His-SYK-tSH2 protein in complex with a terbium-conjugated anti-His antibody (Tb-Ab) (Fig 3B). Once excited, a TR-FRET signal is generated from the Tb donor to the FITC acceptor fluorophore. […] To enable uHTS for large scale screening of small molecule libraries, we miniaturized the TR-FRET assay from 96-well plate format to a 1536-well.
# TR-FRET experiments were performed in 20 μL reactions, using 384-well shallow-well microplates (PerkinElmer). Final reaction components contained 6xHis-SYK-tSH2 (SYKA-c020 tagged) (4 nM), FITC-conjugated FCER1G peptide (8 nM), Tb-conjugated anti-6xHis antibody (53 ng/ml; Cisbio) in assay buffer containing 25 mM HEPES (pH 7.5), 200 mM NaCl, 0.1% BSA and 0.05% Tween-20. After a 2h incubation (at room temperature), TR-FRET signals were measured on a BMG Labtech PHERAstar FSX reader using a Lanthascreen Optics Module. A 200 μs delay was used after excitation with a flash lamp before measurement of fluorescence emission at […]. TR-FRET ratios of fluorescent intensity at 520 nm to 490 nm were calculated. The half maximal inhibitory concentration (IC50) was determined by fitting a four parametric logistic curve to the data.
# [6] = tested on: SYK-tSH2 domains with a doubly phosphorylated ITAM from a T-cell antigen receptor ζ-chain; design: method as in PMID 25287889; conditions: cited from earlier work
# [7] = tested on: SYK-tSH2; design: method as in PMID 25287889; conditions: mass spectrometry; cited from earlier work
# [8] = LCMS characterization of fresh versus older DMSO stocks; assay type: physicochemical; conditions: older DMSO stocks versus freshly prepared solutions
# Text: To expand on the initial 40 putative hits that were identified via uHTS (Fig 3D), additional commercially available structural analogues were ordered and screened via TR-FRET and differential scanning fluorimetry (DSF) (S1 Table). […] The observation of a substantial reduction in protein melting temperature motivated us to determine if the compounds interacted covalently with the SYK-tSH2 domains. Additionally, since the thiourea in these small molecules is reported to react via oxidation, the compounds could be capable of forming a covalent disulfide bond with cysteine residues on SYK [39]. We used compound 1, which is a known covalent modifier of SYK-tSH2, as a positive control in the mass spectrometry analysis. […] Literature reports support that this type of chemical reaction can occur in DMSO, forming a disulfide bond. […]
# Supplementary file pone.0293548.s005.tiff: S4 Fig Identification of active disulfide compounds which form in DMSO solutions of compounds 42 and 43. […] LCMS Calculated for [M+H]^+ C7H9N4O2S: 213.04; observed: 213.1 [M+H]^+. […] LCMS Calculated for [M+H]^+ C14H15N8O4S2: 423.06; observed: 423.0 [M+H]^+. […] LCMS Calculated for [M+H]^+ C10H15N4O2S: 255.08; observed: 255.1 [M+H]^+. […] LCMS Calculated for [M+H]^+ C20H27N8O4S2: 507.15; observed: 507.1 [M+H]^+. […]
# [9] = target: T2, SYK-tSH2; assay: Bio-layer interferometry (BLI) direct binding; conditions: BLI KD, biotinylated SYK-tSH2
# Sequence of MSN (P26038 whole entry, species assumed): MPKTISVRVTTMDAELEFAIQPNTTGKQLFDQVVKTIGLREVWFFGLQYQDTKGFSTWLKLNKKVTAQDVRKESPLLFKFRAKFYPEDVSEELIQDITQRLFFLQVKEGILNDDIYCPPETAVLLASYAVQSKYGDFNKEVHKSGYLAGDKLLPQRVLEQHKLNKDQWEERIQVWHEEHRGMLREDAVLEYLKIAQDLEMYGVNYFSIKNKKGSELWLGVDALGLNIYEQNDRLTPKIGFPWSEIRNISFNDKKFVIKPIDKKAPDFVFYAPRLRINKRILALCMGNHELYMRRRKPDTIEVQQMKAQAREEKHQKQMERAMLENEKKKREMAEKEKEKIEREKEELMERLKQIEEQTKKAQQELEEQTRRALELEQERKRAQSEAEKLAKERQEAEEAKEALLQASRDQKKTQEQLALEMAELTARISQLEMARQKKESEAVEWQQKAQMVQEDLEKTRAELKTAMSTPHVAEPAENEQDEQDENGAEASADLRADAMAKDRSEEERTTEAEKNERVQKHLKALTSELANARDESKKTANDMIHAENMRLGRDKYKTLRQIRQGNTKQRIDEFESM
structure (smiles),measurement,setting,value
"Cn1c(=O)c2[nH]c(SSc3nc4c([nH]3)c(=O)n(C)c(=O)n4C)nc2n(C)c1=O [compound 44, 8,8’-disulfanediylbis(1,3-dimethyl-3,7-dihydro-1H-purine-2,6-dione)]",PPI disruption in GST-PD,[1],disrupted the PPI; also recorded: able to disrupt the full-length interaction
same,Compound concentration giving 50% labeling of SYK-tSH2,"[2]; 10 μM SYK-tSH2, dose-response by mass spectrometry",30 µM
same,Mass adducts on SYK,"[2]; 30 μM, 1 h, room temperature",same formation of mass adducts as 100 μM incubation
same,Number of mass adducts on SYK-tSH2,"[2]; 1 h, room temperature",two to four
same,melting point,,> 300 °C
same,solubility kinetic at 24 h,[3],70.9 µM
same,Mass adducts on MSN,[4]; 30 μM,same formation of mass adducts as 100 μM incubation
same,Number of mass adducts on MSN,"[4]; 100 μM, four available cysteines",two mass adducts
O=[N+]([O-])c1c(NCCO)cc(Cl)c2nonc12 [compound 1],Interference with the TR-FRET assay,[5],quenching the TR-FRET donor signal
same,Inhibition of p-ITAM binding with mutated SYK-tSH2,[6]; Cys206 mutated to serine or alanine,complete loss of inhibition
same,Disruption of SYK-tSH2 binding to doubly phosphorylated ITAM,[6]; fluorescence polarization inhibition assay,disrupt the binding
same,Number of cysteines on SYK-tSH2 bound,[7],4
same,Number of mass adducts on SYK-tSH2,"[2]; 1 h, room temperature",one or two
"Cn1c(=O)c2[nH]c(=S)[nH]c2n(C)c1=O [compound 42, 1,3-dimethyl-8-thioxo-3,7,8,9-tetrahydro-1H-purine-2,6-dione]",IC50,[5],1.9 ± 0.2 µM
same,Stability in DMSO stock solution,[8],had formed corresponding disulfide dimers in DMSO over time
same,Covalent modification of SYK-tSH2,"[2]; 1 h, freshly prepared DMSO stock",did not form a covalent adduct
same,Number of mass adducts on SYK-tSH2,"[2]; 1 h, older DMSO stock solution",two
same,Covalent modification of SYK-tSH2,"[2]; 1 h, older DMSO stock solutions",covalently modifies SYK-tSH2
same,solubility kinetic at 24 h,[3],208 µM
same,Kd,[9],99 ± 0.8 µM
